Experimental data as given in PubChem BioAssay (NCI).
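Cells were grown in 96-well plates and exposed to each compound for 48 hours at five concentrations; endpoints were interpolated linearly between bracketing concentrations, or set to the highest concentration if not reached. TGI: concentration producing complete growth inhibition.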

Columns and labels:
Test in all cases: inhibition of tumour cell growth, NCI panel, 48 h
[1] = test system: U251 CNS
[2] = test system: LOX IMVI melanoma
[3] = test system: EKVX NSCLC
[4] = test system: NCI-H226 lung
[5] = test system: K-562 leukemia
[6] = test system: OVCAR-5 ovarian
[7] = test system: SF-268 CNS
[8] = test system: PC-3 prostate
[9] = test system: M14 melanoma
[10] = test system: HT29 colon
[11] = test system: SNB-19 CNS
[12] = test system: T-47D breast
[13] = test system: MCF7 breast
[14] = test system: SN12C renal
[15] = test system: SK-MEL-5 melanoma
[16] = test system: OVCAR-3 ovarian
[17] = test system: TK-10 renal
[18] = test system: HOP-62 NSCLC
[19] = test system: UACC-62 melanoma
[20] = test system: COLO 205 colon
[21] = test system: HCT-15 colon
[22] = test system: 786-0 renal
[23] = test system: CCRF-CEM leukemia
[24] = test system: OVCAR-4 ovarian
[25] = test system: OVCAR-8 ovarian
[26] = test system: HCT-116 colon
[27] = test system: SW-620 colon
[28] = test system: BT-549 breast
[29] = test system: HOP-92 NSCLC
[30] = test system: RXF 393 renal
[31] = test system: NCI-H23 lung
[32] = test system: SK-MEL-2 melanoma
[33] = test system: SK-MEL-28 melanoma
[34] = test system: UO-31 renal
[35] = test system: HS 578T breast
[36] = test system: KM12 colon
[37] = test system: NCI-H460 lung
[38] = test system: MDA-MB-231 breast
[39] = test system: MOLT-4 leukemia
[40] = test system: MDA-MB-435
[41] = test system: SNB-75 CNS
[42] = test system: SF-295 CNS
[43] = test system: NCI/ADR-RES ovarian
[44] = test system: SK-OV-3 ovarian
[45] = test system: A549 NSCLC
[46] = test system: A498 renal
[47] = test system: DU-145 prostate
[48] = test system: HL-60(TB) leukemia
[49] = test system: MALME-3M melanoma
[50] = test system: IGROV1 ovarian
[51] = test system: RPMI-8226 leukemia
[52] = test system: CAKI-1 renal
[53] = test system: ACHN renal
[54] = test system: NCI-H522 lung
[55] = test system: HCC-2998 colon
[56] = test system: UACC-257 melanoma
[57] = test system: SF-539 CNS
[58] = test system: SR leukemia

Work on `O=S(=O)(Nc1nccs1)c1ccc([As](=O)(O)O)cc1` yielded a TGI [1] of over 100 µM, a TGI [2] of over 100 µM and a TGI [3] of over 100 µM. The TGI [4] was over 100 µM, the TGI [5] was over 100 µM and the TGI [6] was over 100 µM. For the same compound, the TGI [7] was over 100 µM, the TGI [8] was over 100 µM and the TGI [9] was over 100 µM. The TGI [10] was over 100 µM, the TGI [11] was over 100 µM and the TGI [12] was over 100 µM. The TGI [13] was over 100 µM, the TGI [14] was over 100 µM and the TGI [15] was over 100 µM. For the same compound, the TGI [16] was over 100 µM, the TGI [17] was over 100 µM and the TGI [18] was over 100 µM. The TGI [19] was over 100 µM, the TGI [20] was over 100 µM and the TGI [21] was over 100 µM. It also gave a TGI [22] of over 100 µM, a TGI [23] of over 100 µM and a TGI [24] of over 100 µM. It also gave a TGI [25] of over 100 µM, a TGI [26] of over 100 µM and a TGI [27] of over 100 µM. It also gave a TGI [28] of over 100 µM, a TGI [29] of over 100 µM and a TGI [30] of over 100 µM. The TGI [31] was over 100 µM, the TGI [32] was over 100 µM and the TGI [33] was over 100 µM. It also gave a TGI [34] of over 100 µM, a TGI [35] of over 100 µM and a TGI [36] of over 100 µM. It also gave a TGI [37] of over 100 µM, a TGI [38] of over 100 µM and a TGI [39] of over 100 µM. For the same compound, the TGI [40] was over 100 µM, the TGI [41] was over 100 µM and the TGI [42] was over 100 µM. For the same compound, the TGI [43] was over 100 µM, the TGI [44] was over 100 µM and the TGI [45] was over 100 µM. For the same compound, the TGI [46] was over 100 µM, the TGI [47] was over 100 µM and the TGI [48] was over 100 µM. For the same compound, the TGI [49] was over 100 µM, the TGI [50] was over 100 µM and the TGI [51] was over 100 µM. It also gave a TGI [52] of over 100 µM, a TGI [53] of over 100 µM and a TGI [54] of over 100 µM.
`CCOC(=O)c1cc(-c2ccc([N+](=O)[O-])cc2)c([N+](=O)[O-])[nH]1` gave a TGI [1] of over 10 µM, a TGI [3] of over 10 µM and a TGI [4] of 5.77 µM. For the same compound, the TGI [5] was over 10 µM, the TGI [6] was over 10 µM and the TGI [7] was over 10 µM. It also gave a TGI [55] of over 10 µM, a TGI [9] of over 10 µM and a TGI [10] of over 10 µM. The TGI [56] was 5.68 µM, the TGI [11] was over 10 µM and the TGI [12] was 9.95 µM. It also gave a TGI [14] of over 10 µM, a TGI [16] of over 10 µM and a TGI [17] of over 10 µM. The TGI [19] was over 10 µM, the TGI [21] was over 10 µM and the TGI [22] was over 10 µM. For the same compound, the TGI [23] was over 10 µM, the TGI [24] was over 10 µM and the TGI [25] was over 10 µM. It also gave a TGI [26] of over 10 µM, a TGI [28] of over 10 µM and a TGI [29] of 5.49 µM. For the same compound, the TGI [30] was 9.41 µM, the TGI [31] was 8.01 µM and the TGI [32] was over 10 µM. The TGI [34] was 9.69 µM, the TGI [35] was over 10 µM and the TGI [36] was over 10 µM. It also gave a TGI [37] of over 10 µM, a TGI [38] of over 10 µM and a TGI [39] of over 10 µM. The TGI [40] was 9.3 µM, the TGI [41] was over 10 µM and the TGI [42] was 7.47 µM. For the same compound, the TGI [43] was over 10 µM, the TGI [44] was over 10 µM and the TGI [45] was over 10 µM. It also gave a TGI [47] of over 10 µM, a TGI [49] of over 10 µM and a TGI [57] of over 10 µM. For the same compound, the TGI [58] was over 10 µM, the TGI [50] was over 10 µM and the TGI [53] was over 10 µM. The TGI [54] was over 10 µM.
`O=C1CNc2cc(N3CCOCC3)ccc2N1` showed a TGI [1] of over 100 µM, a TGI [2] of over 100 µM and a TGI [3] of over 100 µM. The TGI [4] was over 100 µM, the TGI [5] was over 100 µM and the TGI [6] was over 100 µM. For the same compound, the TGI [7] was over 100 µM, the TGI [8] was over 100 µM and the TGI [55] was over 100 µM. For the same compound, the TGI [9] was over 100 µM, the TGI [10] was over 100 µM and the TGI [56] was over 100 µM. For the same compound, the TGI [11] was over 100 µM, the TGI [12] was over 100 µM and the TGI [15] was over 100 µM. For the same compound, the TGI [16] was over 100 µM, the TGI [17] was over 100 µM and the TGI [18] was over 100 µM. For the same compound, the TGI [19] was over 100 µM, the TGI [20] was over 100 µM and the TGI [21] was over 100 µM. It also gave a TGI [22] of over 100 µM, a TGI [23] of over 100 µM and a TGI [24] of over 100 µM. The TGI [25] was over 100 µM, the TGI [26] was over 100 µM and the TGI [27] was over 100 µM. It also gave a TGI [28] of over 100 µM, a TGI [29] of over 100 µM and a TGI [30] of over 100 µM. The TGI [31] was over 100 µM, the TGI [32] was over 100 µM and the TGI [33] was over 100 µM. The TGI [34] was over 100 µM, the TGI [35] was over 100 µM and the TGI [36] was over 100 µM. The TGI [37] was over 100 µM, the TGI [38] was over 100 µM and the TGI [39] was over 100 µM. It also gave a TGI [40] of over 100 µM, a TGI [41] of over 100 µM and a TGI [42] of over 100 µM. The TGI [43] was over 100 µM, the TGI [44] was over 100 µM and the TGI [45] was over 100 µM. For the same compound, the TGI [46] was over 100 µM, the TGI [47] was over 100 µM and the TGI [48] was over 100 µM. For the same compound, the TGI [49] was over 100 µM, the TGI [58] was over 100 µM and the TGI [50] was over 100 µM. It also gave a TGI [51] of over 100 µM, a TGI [52] of over 100 µM and a TGI [53] of over 100 µM. The TGI [54] was over 100 µM.
